Test results reported in PMC6006164, “Natural cyclopeptide RA-V inhibits the NF-κB signaling pathway by targeting TAK1” (Cell Death & Disease, 2018).

Legend:
[1] = biological target: T1, TAK1 (Homo sapiens, UniProt O43318); assay: Streptavidin agarose pull-down with biotin-tagged probe CB12; format: binding; conditions: lysates of HEK293T transfected with TAK1; RA-V in 10-fold excess
T1 construct: expressed in transfected cells; host or cells: HEK293T
T1 sequence (O43318 1-579 isoform O43318-2): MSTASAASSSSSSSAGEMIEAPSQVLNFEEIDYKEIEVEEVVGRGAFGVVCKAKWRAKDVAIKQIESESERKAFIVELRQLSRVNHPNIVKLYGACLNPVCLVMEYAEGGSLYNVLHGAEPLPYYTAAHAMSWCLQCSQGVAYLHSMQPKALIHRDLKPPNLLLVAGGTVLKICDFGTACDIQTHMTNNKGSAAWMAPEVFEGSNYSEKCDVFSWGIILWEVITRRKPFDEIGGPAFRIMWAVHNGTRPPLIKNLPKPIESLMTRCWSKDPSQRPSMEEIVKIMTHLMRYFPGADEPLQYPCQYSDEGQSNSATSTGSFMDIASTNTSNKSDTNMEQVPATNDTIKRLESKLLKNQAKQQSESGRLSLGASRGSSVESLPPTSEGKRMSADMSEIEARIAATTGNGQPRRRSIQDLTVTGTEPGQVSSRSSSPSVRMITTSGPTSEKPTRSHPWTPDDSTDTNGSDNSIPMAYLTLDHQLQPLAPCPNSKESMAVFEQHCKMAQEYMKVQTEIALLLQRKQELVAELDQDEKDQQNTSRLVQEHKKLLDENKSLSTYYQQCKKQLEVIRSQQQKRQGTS
Experimental: HEK293T cells were transfected with TAK1 for 24 h, then the cell lysates were incubated with biotin or CB12 followed by streptavidin agarose pull-down. […] HEK293T cells were transfected with the indicated plasmids for 24 h. The cell lysates were pulled down with streptavidin agarose and then immunoblotted with HA or Flag antibody. Each experiment was repeated at least three times
HEK293T cells were transfected with TAK1-N or TAK1-C for 24 h. The cells lysates were incubated with CB12 or biotin and precipitated with streptavidin-coated sepharose and were analyzed by immunoblotting with Flag antibody. b The model for RA-V binding to the crystal structure of the TAK1–TAB1 fusion protein (PDB 4GS6). […] HEK293T cells were transfected with TAK1 for 24 h, and then the cell lysates were incubated with biotin or CB12 before precipitation with streptavidin agarose. […] HeLa cells were incubated with various concentrations of RA-V for 12 h and then treated with 10 ng/mL TNF-α for 10 min. The cell lysates were prepared and western blotted with the indicated antibodies. Each experiment was repeated at least three times
HEK293T cells were harvested and lysed in RIPA buffer with protease inhibitors. […] The samples were separated by SDS-PAGE, and the bound proteins were detected using the indicated antibodies.

[2] = system: NF-κB activation; assay: Bioluminescence imaging of NF-κB-luciferase transgenic mice in the endotoxin shock model; format: in vivo; conditions: RA-V micelles 0.25 mg/kg i.v. 52, 28, 4 h before LPS 10 mg/kg i.p.; n = 4; particularly 2 h after LPS
Experimental: Fig. 2 RA-V prevents endotoxic shock and inhibits NF-κB activation in vivo. a–c RA-V prevents endotoxic shock in vivo. Mice (n = 6 per group) were intravenously injected with RA-V micelles (0.25 mg/kg body weight) or control micelles 52, 28, and 4 h before an intraperitoneal injection of LPS (10 mg/kg). One hour later, the relative levels of IL-6 and TNF-α mRNAs in the liver were assessed by quantitative RT-PCR (a), the serum IL-6 and TNF-α levels were quantified by ELISA (b), and the expression of p65 and IκBα phosphorylation in the liver were measured by immunoblot analysis c. d RA-V improved animal survival. Mice (n = 20 per group) were intravenously injected with RA-V micelles (0.25 mg/kg body weight) or control micelles 52, 28, and 4 h before intraperitoneal injection of LPS (20 mg/kg). Animal survival was recorded in 2–3 hours intervals. e RA-V inhibits NF-κB activation in vivo. […] The bioluminescent signals from all of the mice were detected and quantified. […]
The bioluminescence imaging of the NF-κB-luciferase transgenic mice was performed using a Xenogen IVIS Spectrum in vivo imaging system (Caliper Life Sciences). […] After 15 min, the in vivo bioluminescence was measured at the indicated times. The bioluminescent signals from all of the mice were detected and quantified.

[3] = system: TAK1, JNK, ERK, p38, and IKKα/β phosphorylation; assay: Western blot of TAK1 and downstream kinase phosphorylation; format: cell-based; conditions: HeLa; RA-V 12 h, 10 ng/mL TNF-α 10 min
Experimental: HEK293T cells were transfected with TAK1-N or TAK1-C for 24 h. The cells lysates were incubated with CB12 or biotin and precipitated with streptavidin-coated sepharose and were analyzed by immunoblotting with Flag antibody. b The model for RA-V binding to the crystal structure of the TAK1–TAB1 fusion protein (PDB 4GS6). The blue dotted lines represent the hydrogen bonds between RA-V (green) and TAK1–TAB1. c RA-V probably binds the ATP-binding pocket of TAK1. HEK293T cells were transfected with TAK1 for 24 h, and then the cell lysates were incubated with biotin or CB12 before precipitation with streptavidin agarose. The immunoprecipitates were treated with ATP or (5Z)-7-oxozeaenol and western blotted with Flag antibody. d RA-V inhibits TAK1, JNK, ERK, p38, and IKKα/β phosphorylation. HeLa cells were incubated with various concentrations of RA-V for 12 h and then treated with 10 ng/mL TNF-α for 10 min. The cell lysates were prepared and western blotted with the indicated antibodies. Each experiment was repeated at least three times
For western blot analysis, the samples were equally subjected to sodium dodecyl sulfate polyacrylamide gel electrophoresis (SDS-PAGE) and transferred to polyvinylidene difluoride membranes (Millipore). […] The protein bands were detected with the SuperSignal West Pico Chemiluminescent Substrate (Pierce).

[4] = biological target: T2, TAK1–TAB2 interaction (Homo sapiens, UniProt O43318); assay: Co-immunoprecipitation of TAK1 and TAB2; format: cell-based; conditions: HEK293T, Flag-TAK1 and HA-TAB2; RA-V 6 h
T2 construct: expressed in transfected cells; host or cells: HEK293T
T2 sequence (O43318 1-579 isoform O43318-2): T1 sequence (O43318 1-579 isoform O43318-2)
Experimental: (§1) Fig. 4 RA-V blocks the interaction between TAK1 and TAB2. a RA-V blocked the exogenous TAK1–TAB2 interaction. HEK293T cells were transfected with Flag-TAK1 and HA-TAB2 for 24 h and then incubated with various concentrations of RA-V for 6 h. […] HEK293T cells were transfected with Flag-TAK1 and HA-TRAF6 or HA-TAB1 for 24 h and then incubated with RA-V (800 nM) for 6 h. The cell lysates were immunoprecipitated with HA antibody, and immunoblots were performed with the indicated antibodies. d RA-V blocked the endogenous TAK1–TAB2 interaction. HEK293T (left) or RAW264.7 (right) cells were incubated with 800 nM RA-V for 6 h and stimulated with 10 ng/mL TNF-α for 2 h or 1 μg/mL LPS for 3 h, respectively. The cell lysates were immunoprecipitated with TAK1 antibody or control IgG and then immunoblotted with the indicated antibodies. Each experiment was repeated at least three times
(§2) The cell lysates were prepared using radioimmunoprecipitation (RIPA) buffer containing 50 mM Tris-HCl pH 7.4, 150 mM NaCl, 1 mM ethylenediaminetetraacetic acid, 1% Triton X-100, 0.5% deoxycholate, and 0.1% sodium dodecyl sulfate, to which protease inhibitors (Roche) were added. The lysates were incubated with the indicated antibodies before adding 20 μL of Protein A/G agarose for 2 h. After four washes with the same buffer, the immunoprecipitates were boiled in 2 × SDS loading buffer.

[5] = system: TAK1–TAB2 interaction; assay: Co-immunoprecipitation of TAK1 and TAB2; format: cell-based; conditions: HEK293T or RAW264.7; 800 nM RA-V 6 h
Experimental: as §1, §2

RA-V was tested, and the “competition with the CB12–TAK1 interaction (pull-down)” value [1] was “competed away”, the “NF-κB activation, in vivo bioluminescence” value [2] was “inhibited NF-κB activation” and the “phosphorylation of TAK1 and of IKKα/β, JNK, ERK, and p38” value [3] was “inhibited”. For the same substance, the “interaction between exogenously expressed TAK1 and TAB2” value [4] was “dose-dependently blocked” and the “endogenous TNF-α- or LPS-induced TAK1–TAB2 interaction” value [5] was “inhibited the interaction”.
